Data taken from patent publication US5328840A, “Method for preparing targeted carrier erythrocytes” (The Research Foundation of the State University of New York, priority 1991, dated 1994).
“Also recorded” adds a separate entry of the source. Like-named read-outs stand apart in the source and are kept apart here. Where a SMILES comes first, the peptide text is derived from it.

Legend:
[1] = tested on: activated platelets; test: Platelet-thrombo-erythrocyte co-aggregation assay (microtiter); format: cell-based
Description: To assess the ability of thrombo-erythrocytes to enter into developing platelet aggregates, a microtiter assay was developed. Platelet-rich plasma (PRP) was prepared from blood anticoagulated with 0.01 volume 40% sodium citrate and adjusted to a platelet count of 3.5×10^8 /ml with platelet-poor plasma. Aliquots (50 or 100 μl) of the PRP were added to microtiter wells and then 5 or 10 μl of ADP (100 μM stock solution) was added to selected wells, followed by the addition of 5 or 10 μl of thrombo-erythrocytes (10% hematocrit in buffer A). The microtiter plate was then rotated at 270 rpm at 22° C. for variable periods of time between 0.5 and 20 min and the extent of platelet-thrombo-erythrocytecoaggregation was assessed visually on a scale from 0-4+ with the aid of a magnifying mirror. To assess the specificity of the reaction, in some experiments the PRP was preincubated with 10 mM EDTA, 300 μg/ml of the peptide RGDF, or 20 μg/ml of an antibody directed against both the GPIIb/IIIa receptor and the αv β3 vitronectin receptor that blocks fibrinogen binding to activated platelets (7E3) (Coller, 1985, J. Clin. Invest. 76:101-108; Coller et al., 1991, Blood 77:75-83). Blood smears were made from the samples in some experiments and stained with a standard Wright stain (Hemastain, Geometric Data, Wayne, Pa.).

[2] = tested on: gel-filtered platelets; test: Co-aggregation of thrombo-erythrocytes with gel-filtered platelets in the aggregometer; format: cell-based
Description: To obtain more quantitative data on the co-aggregation of thrombo-erythrocytes with platelets, the assay was adapted to the aggregometer. PRP was prepared from whole blood anticoagulated with ACD-A (8.5:1.5) and gel-filtered over a column of Sepharose 2B (Pharmacia) using a modified Tyrodes buffer (140 mM NaCl, 3 mM KCl, 12 mM NaHCO3, 0.4 mM NaH2 PO4, 10 mM HEPES, 2 mM MgCl2, 0.2% bovine serum albumin, 5 mM glucose, pH 7.4). Samples consisted of 450 μl of gel-filtered platelets+20 μl of thrombo-erythrocytes (10% hematocrit) or control erythrocytes (i.e., erythrocytes incubated with peptide but no crosslinker). Maximal transmission was set with 450 μl of buffer+20 μl of control erythrocytes. Platelets were activated with ADP (4.3 μM final concentration) or epinephrine (10 μM).

[3] = tested on: platelets adherent to collagen; test: Binding of thrombo-erythrocytes to platelets adherent to collagen; format: cell-based; conditions: 1 hour, 22° C., 2 mM MgCl2
Description: The first stage of the assay, involving the adhesion of platelets to purified type 1 rat skin collagen, was performed as described previously, but without radiolabeling the platelets (Coller et al., 1989, Blood 74:182-192). In brief, a sample of gel-filtered platelets (100 μl; 5.5×10^8 /ml) in the presence of 2 mM MgCl2 was added to microtiter plate wells precoated with collagen and the platelets were allowed to adhere for 1 hour at 22° C. The wells were then emptied and washed×3 with buffer (0.15M NaCl, 0.01M Tris/HCl, 0.5% bovine serum albumin, 5 mM glucose, pH 7.4). Control erythrocytes or thrombo-erythrocytes (50 μl; 10% hematocrit) were then added to the wells in the same buffer, which was now supplemented with 2 mM MgCl2. After 60 min, the wells were emptied and washed×3 as above. The wells were then visually inspected at 400× magnification with the aid of a microscope with Nomarski optics. The effect of 20 μg/ml of an antibody to GPIIb/IIIa that blocks fibrinogen binding and platelet aggregation (10E5) (Coller et al., 1983, J. Clin. Invest. 72:325-338) and 400 μg/ml of the peptide RGDF on thrombo-erythrocyte adhesion to platelets was tested by adding these agents to the thrombo-erythrocytes immediately before the thrombo-erythrocytes were added to the microtiter wells.

[4] = tested on: erythrocytes; test: Assessment of hemolysis (leucomalachite green); conditions: mean SD; n=6
Description: Hemolysis of erythrocytes during thrombo-erythrocyte preparation was assayed by the reaction of any free hemoglobin with leucomalachite green (Kodak; 0.1% p,p'-benzylidenebis-(N,N-dimethylaniline) in 3.3 M acetic acid). The resulting compound was detected by absorbance at 617 nm, a wavelength that is not interfered with by the mal-sac-HNSA dianion. Standards were prepared by lysing known amounts of erythrocytes in deionized water. The assay consisted of 10 μl of sample (the supernatant of the reaction mixture after centrifuging to remove intact erythrocytes), 1 ml of leucomalachite green, and 1 ml of 0.1% […]. After 10 min the absorbance of each sample was read at 617 nm.

[5] = target: T1, 7E3 binding to platelets (Homo sapiens, UniProt P05106+P08514); test: Effect of RGD peptides on initial rate of 125I-7E3 binding to platelets
T1 construct: endogenous in cells; host or cells: platelets in citrated platelet-rich plasma (PRP)
T1 sequence (P08514 32-887 limits assumed): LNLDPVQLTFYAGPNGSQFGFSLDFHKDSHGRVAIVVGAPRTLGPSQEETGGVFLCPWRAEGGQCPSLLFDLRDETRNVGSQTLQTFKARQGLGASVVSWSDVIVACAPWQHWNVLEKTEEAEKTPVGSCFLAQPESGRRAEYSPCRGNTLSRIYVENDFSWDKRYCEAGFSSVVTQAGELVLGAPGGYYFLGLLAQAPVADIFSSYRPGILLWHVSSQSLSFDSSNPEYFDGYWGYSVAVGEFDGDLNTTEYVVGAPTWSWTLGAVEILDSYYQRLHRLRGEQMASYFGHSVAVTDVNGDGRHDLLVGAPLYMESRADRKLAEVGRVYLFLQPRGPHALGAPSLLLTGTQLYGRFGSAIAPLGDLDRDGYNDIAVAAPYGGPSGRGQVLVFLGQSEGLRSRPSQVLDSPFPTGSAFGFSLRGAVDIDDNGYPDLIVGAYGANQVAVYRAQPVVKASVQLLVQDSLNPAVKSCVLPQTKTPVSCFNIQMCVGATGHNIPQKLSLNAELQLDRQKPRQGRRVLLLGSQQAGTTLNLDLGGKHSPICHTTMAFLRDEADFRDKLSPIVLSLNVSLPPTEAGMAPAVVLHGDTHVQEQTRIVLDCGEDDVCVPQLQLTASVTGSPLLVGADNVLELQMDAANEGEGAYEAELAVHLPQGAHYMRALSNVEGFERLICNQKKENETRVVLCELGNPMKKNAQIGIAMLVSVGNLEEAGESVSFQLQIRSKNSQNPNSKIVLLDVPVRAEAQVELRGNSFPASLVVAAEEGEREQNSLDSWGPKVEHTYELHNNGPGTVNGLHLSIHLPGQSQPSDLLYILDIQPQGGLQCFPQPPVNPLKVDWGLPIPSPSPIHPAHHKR
T1 sequence (P08514 891-1039 partner limits assumed): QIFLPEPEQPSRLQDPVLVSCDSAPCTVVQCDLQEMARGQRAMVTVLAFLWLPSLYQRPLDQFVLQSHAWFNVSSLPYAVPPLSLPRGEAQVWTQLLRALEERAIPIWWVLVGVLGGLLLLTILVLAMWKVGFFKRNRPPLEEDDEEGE
T1 sequence (P05106 27-788): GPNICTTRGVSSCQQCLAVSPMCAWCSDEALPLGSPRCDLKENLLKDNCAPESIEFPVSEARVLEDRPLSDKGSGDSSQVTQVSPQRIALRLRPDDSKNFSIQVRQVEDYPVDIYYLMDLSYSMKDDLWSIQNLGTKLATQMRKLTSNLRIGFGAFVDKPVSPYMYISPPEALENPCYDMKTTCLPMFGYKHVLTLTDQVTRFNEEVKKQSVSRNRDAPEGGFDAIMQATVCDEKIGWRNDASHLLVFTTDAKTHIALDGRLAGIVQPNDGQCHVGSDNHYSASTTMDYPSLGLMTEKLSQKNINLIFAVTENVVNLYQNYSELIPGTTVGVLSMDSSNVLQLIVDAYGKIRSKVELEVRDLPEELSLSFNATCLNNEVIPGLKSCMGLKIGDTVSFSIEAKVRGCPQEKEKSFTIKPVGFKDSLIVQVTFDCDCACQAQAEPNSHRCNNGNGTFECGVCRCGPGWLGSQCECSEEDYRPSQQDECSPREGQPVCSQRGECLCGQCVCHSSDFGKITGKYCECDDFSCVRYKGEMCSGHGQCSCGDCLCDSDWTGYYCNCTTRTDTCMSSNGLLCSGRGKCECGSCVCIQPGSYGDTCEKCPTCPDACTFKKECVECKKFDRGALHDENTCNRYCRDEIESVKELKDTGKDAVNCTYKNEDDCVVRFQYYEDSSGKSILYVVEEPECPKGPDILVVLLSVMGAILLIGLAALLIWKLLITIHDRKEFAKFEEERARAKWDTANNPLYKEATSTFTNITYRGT
Description: (§1) To assess the effect of RGD-containing peptides on the initial rate of binding of 7E3 and 10E5, studies were conducted with ^125 I-7E3 and ^125 I-10E5 essentially as described before (Coller, B.S., 1985, J. Clin. Invest. 76:101). The RGDS or LGGAKQAGDV(R)8 RGDV peptide was incubated at 22° C. with citrated PRP (~3×10^8 /ml) for 1 to 5 min at various concentrations and then non-saturating concentrations of the antibodies (1.5-2.5 μg/ml) were added for 1 to 2 min. The bound antibody was separated from the free by centrifugation of the PRP through 20% sucrose and both the platelet pellet and the supernatant were counted. Results were expressed as either an increase or decrease in antibody binding as compared to a buffer control.

[6] = target: T2, 10E5 binding to platelets (Homo sapiens, UniProt P05106+P08514); test: Effect of RGD peptides on initial rate of 125I-10E5 binding to platelets; conditions: similar concentrations (up to 5 mM); one experiment
T2 construct: endogenous in cells; host or cells: platelets in citrated platelet-rich plasma (PRP)
T2 sequence (P08514 32-887 limits assumed): as the sequence (P08514 32-887 limits assumed) above
T2 sequence (P08514 891-1039 partner limits assumed): as the sequence (P08514 891-1039 partner limits assumed) above
T2 sequence (P05106 27-788): as the sequence (P05106 27-788) above
Description: as §1

[7] = for solubility in 0.1% trifluoroacetic acid: pH 2.5; for solubility in the acetate buffer: pH 6.5
[8] = tested on: platelets; test: Agglutination assay with peptide-coated beads; format: cell-based
Description: Biol. 109:863) was a gift of Dr. Kenneth Yamada, National Institutes of Health, Bethesda, Md. The platelets were incubated with the antibody concentrations indicated for 30-60 min before the addition of the beads. In the case of PAC-1, which binds only to activated platelets (Shattil et al. 1985, J. Biol. Chem. 260:1107), the platelets were activated with ADP (6.7 μM final concentration) without stirring for 5 min before adding the antibody.
To 70 μl of PRP or GFP at a count of 3×10^11 platelets/l in a 96 well round bottom polystyrene microtiter plate, 5 μl of a well mixed bead suspension (0.22 mg beads) was added and the plate was rotated at 260 rpm (Orbit shaker, Lab Line Instruments, Melrose Park, Ill.) for various times between 0 and 30 min (0.5, 1, 2, 4, 6, 8, 10, 12, 15, 20, 25, 30 min). […] Platelet counts in the supernatant plasma or buffer were measured by removing 5 μl from the supernatant after allowing the bead agglutinates to settle for 3 min. […] In some experiments, platelets were activated with 6.7 μM ADP 30 sec prior to the addition of the beads; in other experiments the platelets were preincubated with 0.14 μM PGE1 (Sigma, St. Louis) for 30 min.

[9] = tested on: platelets; test: Release of 14C-serotonin from platelets; format: cell-based; conditions: acetylsalicylic acid 50 μM; PGE1 0.14 μM; 8 min
Description: Citrated PRP (3×10^11 /l) was incubated with ^14 C-5-serotonin (10 μCi/ml stock solution, 20-25 nCi/ml final concentration, New England Nuclear, Boston, Mass.) for 30 min at 22° C. with gentle stirring (~100 rpm) using a teflon coated stir bar. In order to maintain the PRP pH constant at ~7.60, the PRP was overlayed with 5% CO2, 95% air just before the incubation began. Serotonin uptake was terminated by adding 5 μM imipramine (Sigma) and stirring was continued for another 5 min. Total uptake under these conditions was 70-80% of the added serotonin. The agglutination assay was performed in quadruplicate in the same way as described above except that after 8 min of shaking, 70 μl of cold 2% paraformaldehyde in PBS, pH 7.4 was added to the wells and the microtiter plate was centrifuged at 1000×g for 5 min at 22° C. The top 50 μl of the supernatant (total volume in each well was 145 μl) was added to scintillation fluid and counted in a scintillation spectrometer. In some experiments the PRP was preincubated with acetylsalicylic acid (50 μM) or PGE1 (0.14 μM) during the serotonin uptake.

[10] = Solubility of (G)n-RGDF peptides in buffers

thrombo-erythrocytes: erythrocytes covalently conjugated through Mal-Sac-HNSA to the peptide acetyl-Cys-Gly-Gly-Arg-Gly-Asp-Phe-amide (Ac-CGGRGDF-NH2) (also: conjugated to erythrocytes via Mal-Sac-HNSA)
platelet-thrombo-erythrocyte co-aggregation ([1]; PRP with ADP, 120 min crosslinking, more than 20 experiments): positive response
interaction with platelets ([1]; no agonist added): did not interact with platelets
interaction with platelets (aggregometer) ([2]; ADP-activated gel-filtered platelets, 4.3 μM ADP): interact with ADP-activated platelets
interaction with platelets (aggregometer) ([2]; unactivated gel-filtered platelets, stirring, 37° C.): did not interact with unactivated platelets
binding to platelets adherent to collagen [3]: formed a dense lawn on top of the platelet lawn; also recorded: bound extensively to the adherent platelets
erythrocyte hemolysis in supernatant fluid after the thrombo-erythrocyte reaction [4]: 0.40±0.09%

RGDS
increase in initial rate of 7E3 binding ([5]; peptide 2.5 mM, n=1): 63%
increase in initial rate of 7E3 binding ([5]; peptide 5 mM, citrated PRP, n=2): 66%
increase in initial rate of 7E3 binding ([5]; peptide 0.5-1 mM, n=4): 21%
decrease in rate of 10E5 binding [6]: 5%

N=C(N)NCCC[C@H](NC(=O)CNC(=O)CNC(=O)CNC(=O)CNC(=O)CNC(=O)CNC(=O)CNC(=O)CNC(=O)CNC(=O)CNC(=O)CNC(=O)CNC(=O)CNC(=O)CNC(=O)CNC(=O)CNC(=O)CNC(=O)CNC(=O)CN)C(=O)NCC(=O)N[C@@H](CC(=O)O)C(=O)N[C@@H](Cc1ccccc1)C(N)=O [G19 -RGDF] (H-GGGGGGGGGGGGGGGGGGGRGDF-NH2)
solubility in 0.1% trifluoroacetic acid [7]: fully soluble
solubility in the acetate buffer [7]: only partially soluble

O=C(O)CN(CCN(CC(=O)O)CC(=O)O)CC(=O)O [EDTA, reference compound]
effect on platelet-thrombo-erythrocyte co-aggregation ([1]; ADP-activated PRP preincubated with 10 mM EDTA, 300 μg/ml RGDF or antibody 7E3): inhibited
bead agglutination in the presence of the agent [8]: no agglutination at all

N=C(N)NCCC[C@H](NC(=O)CNC(=O)CNC(=O)CNC(=O)CNC(=O)CNC(=O)CNC(=O)CNC(=O)CNC(=O)CNC(=O)CNC(=O)CNC(=O)CNC(=O)CN)C(=O)NCC(=O)N[C@@H](CC(=O)O)C(=O)N[C@@H](Cc1ccccc1)C(N)=O [G13 -RGDF]
solubility in 0.1% trifluoroacetic acid [7]: fully soluble
solubility in the acetate buffer [7]: only partially soluble

CC(=O)Oc1ccccc1C(=O)O [acetylsalicylic acid]
effect of preincubation of platelets on serotonin release induced by (G)n -RGDF beads [9]: did not change this pattern

Y-HHLGGAKQAGDV (N-terminal added tyrosine) [Fibrinogen Dodecapeptide (+Tyr), fibrinogen γ-chain dodecapeptide (amino acids 400-411) with an added amino-terminal tyrosine]
Inhibition of G9 -RGDF Bead Agglutination (%) ([8]; peptide 1.8 × 10^-3 M): 13%
Inhibition of G9 -RGDF Bead Agglutination (%) ([8]; peptide 3.6 × 10^-3 M): 67%
Inhibition of G9 -RGDF Bead Agglutination (%) ([8]; peptide ≤4.5 × 10^-4 M): 0%

PAC-1
inhibition of agglutination of G1 -RGDF and G3 -RGDF beads [8]: effectively inhibited
Inhibition of G9 -RGDF Bead Agglutination (%) +ADP ([8]; antibody 60 μg/ml, 30 min): 8%
inhibition of the interaction of platelets in PRP with G1 -RGDF, G3 -RGDF, and G5 -RGDF beads ([8]; even with ADP activation): > 90%

N=C(N)NCCC[C@H](NC(=O)CNC(=O)CNC(=O)CNC(=O)CNC(=O)CNC(=O)CNC(=O)CNC(=O)CNC(=O)CNC(=O)CNC(=O)CN)C(=O)NCC(=O)N[C@@H](CC(=O)O)C(=O)N[C@@H](Cc1ccccc1)C(N)=O [G11 -RGDF]
solubility in the acetate buffer ([10]; 0.05M Na acetate buffer, pH 6.5): only partially soluble
solubility in 0.1% trifluoroacetic acid ([10]; pH 2.5, 22° C. or 37° C.): fully soluble

N=C(N)NCCC[C@H](NC(=O)CNC(=O)CNC(=O)CNC(=O)CNC(=O)CNC(=O)CNC(=O)CNC(=O)CNC(=O)CNC(=O)CNC(=O)CNC(=O)CNC(=O)CNC(=O)CNC(=O)CN)C(=O)NCC(=O)N[C@@H](CC(=O)O)C(=O)N[C@@H](Cc1ccccc1)C(N)=O [G15 -RGDF] (H-GGGGGGGGGGGGGGGRGDF-NH2)
solubility in 0.1% trifluoroacetic acid [7]: fully soluble
solubility in the acetate buffer [7]: only partially soluble

CCCCC[C@H](O)/C=C/[C@H]1[C@H](O)CC(=O)[C@@H]1CCCCCCC(=O)O [PGE1]
effect of preincubation of platelets on serotonin release induced by (G)n -RGDF beads [9]: abolished release

N=C(N)NCCC[C@H](NC(=O)CNC(=O)CNC(=O)CNC(=O)CNC(=O)CNC(=O)CNC(=O)CNC(=O)CNC(=O)CNC(=O)CNC(=O)CNC(=O)CNC(=O)CNC(=O)CNC(=O)CNC(=O)CNC(=O)CN)C(=O)NCC(=O)N[C@@H](CC(=O)O)C(=O)N[C@@H](Cc1ccccc1)C(N)=O [G17 -RGDF] (H-GGGGGGGGGGGGGGGGGRGDF-NH2)
solubility in 0.1% trifluoroacetic acid [7]: fully soluble
solubility in the acetate buffer [7]: only partially soluble
